Legend:
Format in all cases: in vivo
[1] = test system: AMARE: redroot pigwseed (Amaranthus retroflexus); assay: Post-emergent Test I herbicidal activity; conditions: post-emergence, read-out: Visual Growth Reduction (%), AMARE
Experimental: (§1) Post-emergent Test I Seeds test species were obtained from commercial suppliers and planted into a 13 cm diameter-round pot containing soil-less media mix (metro-mix 360®, Sun Gro Horticulture). Postemergence treatments were planted 8-12 days prior to application and cultured in a greenhouse equipped with supplemental light sources to provide a 16 h photoperiod at 24-29° C. All pots were surface irrigated.
(§2) A weighted amount, determined by the highest rate to be tested, of each compound was dissolved in 1.3 mL acetone-DMSO (97:3, v/v) and diluted with 4.1 mL water-isopropanol-crop oil concentrate (78:20:2, v/v/v) containing 0.02% Triton X-155 to obtain concentrated stock solutions. Additional application rates were obtained by serial dilution of the high rate solution into a solution containing appropriate volume of 97:3 v/v mixture of acetone and DMSO and appropriate volume of an aqueous mixture of water, isopropyl alcohol, crop oil concentrate (78:20:2, v/v/v) containing 0.02% Triton X-155.
(§3) Formulated compounds were applied using a DeVilbiss® compressed air sprayer at 2-4 psi. Following treatment, pots were returned to the greenhouse for the duration of the experiment. All pots were sub-irrigated as need to provide optimum growing conditions. All pots were fertilized one time per week by subirrigating with Peters Peat-Lite Special® fertilizer (20-10-20).
(§4) […] All evaluations were made visually on a scale of 0 to 100 where 0 represents no activity and 100 represents complete plant death. Visual assessments of plant injury were made based on growth reduction, discoloration, leaf deformity and necrosis.

[2] = test system: AVEFA: wild oats (Avena fatua); assay: Post-emergent Test I herbicidal activity; conditions: post-emergence, 336 h, read-out: Visual Growth Reduction (%) 14 Days After Application, AVEFA
Experimental: as §1, §2, §3, §4

[3] = test system: ECHCG: barnyardgrass (Echinochloa crus-galli); assay: Post-emergent Test I herbicidal activity; conditions: post-emergence, 336 h, read-out: Visual Growth Reduction (%) 14 Days After Application, ECHCG
Experimental: as §1, §2, §3, §4

[4] = test system: HELAN: sunflower (Helianthus annuus); assay: Post-emergent Test I herbicidal activity; conditions: post-emergence, 336 h, read-out: Visual Growth Reduction (%) 14 Days After Application, HELAN
Experimental: as §1, §2, §3, §4

[5] = test system: IPOHE: ivyleaf morningglory (Ipomoea hederecea); assay: Post-emergent Test I herbicidal activity; conditions: post-emergence, 336 h, read-out: Visual Growth Reduction (%) 14 Days After Application, IPOHE
Experimental: as §1, §2, §3, §4

[6] = test system: SETFA: giant foxtail (Setaria faberi); assay: Post-emergent Test I herbicidal activity; conditions: post-emergence, 336 h, read-out: Visual Growth Reduction (%) 14 Days After Application, SETFA
Experimental: as §1, §2, §3, §4

[7] = test system: BROTE: downy brome (Bromus tectorum); assay: Post-emergent Test III, herbicidal activity in wheat and barley; conditions: for pest or weed control at 35 g/ha / pest or weed control at 70 g/ha / pest or weed control at 140 g/ha: Bromus tectorum, post-emergence, 504 h, read-out: Visual Growth Reduction (%) 21 Days After Application BROTE; for pest or weed control at 35 g/ha: 35 g ai/ha; for pest or weed control at 70 g/ha: 70 g ai/ha; for pest or weed control at 140 g/ha: 140 g ai/ha; for GR50 BROTE / GR80 BROTE: probit analysis, 21 days after application; for GR50 BROTE: dose for growth reduction of 50 percent; for GR80 BROTE: dose for growth reduction of 80 percent
Outline: (§5)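 Plants at the second to third true-leaf stage, grown in a greenhouse at about 18/17 °C with a 14 h photoperiod, were sprayed post-emergence at 187 L/ha with the high rate and ½× to 1/16× serial dilutions in an acetone/DMSO/crop-oil/surfactant carrier. Injury was rated visually at 21 d on a 0–100% scale, and GR20–GR90 were derived by probit analysis.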

[8] = test system: VERPE: bird's-eye speedwell (veronica persica); assay: as above; conditions: for pest or weed control at 35 g/ha / pest or weed control at 70 g/ha / pest or weed control at 140 g/ha: Veronica persica, post-emergence, 504 h, read-out: Visual Growth Reduction (%) 21 Days After Application VERPE; for pest or weed control at 35 g/ha: 35 g ai/ha; for pest or weed control at 70 g/ha: 70 g ai/ha; for pest or weed control at 140 g/ha: 140 g ai/ha; for GR50 VERPE / GR80 VERPE: probit analysis, 21 days after application; for GR50 VERPE: dose for growth reduction of 50 percent; for GR80 VERPE: dose for growth reduction of 80 percent
Outline: as §5

| Compound | pest or weed control at 35 g/ha [7] | pest or weed control at 70 g/ha [7] | pest or weed control at 140 g/ha [7] | GR50 BROTE [7] | GR80 BROTE [7] | pest or weed control at 35 g/ha [8] | pest or weed control at 70 g/ha [8] | pest or weed control at 140 g/ha [8] | GR50 VERPE [8] | GR80 VERPE [8] | also measured |
| --- | --- | --- | --- | --- | --- | --- | --- | --- | --- | --- | --- |
| Nc1c(F)c(-c2ccc(I)cc2)nc(C(=O)O)c1Cl [Compound 45, 4-amino-3-chloro-5-fluoro-6-(4-iodophenyl)picolinic acid] | 85 to 94% | 85 to 94% | 95 to 100% | 13 g ai/ha | 36 g ai/ha | 75 to 84% | 85 to 94% | 85 to 94% | 7 g ai/ha | 30 g ai/ha | pest or weed control at 3960 g/ha ([1]; 3.96 kg ai/ha): 95 to 100%; pest or weed control at 3960 g/ha ([2]; 3.96 kg ai/ha): 95 to 100%; pest or weed control at 3960 g/ha ([3]; 3.96 kg ai/ha): 95 to 100%; pest or weed control at 3960 g/ha ([4]; 3.96 kg ai/ha): 95 to 100%; pest or weed control at 3960 g/ha ([5]; 3.96 kg ai/ha): 85 to 94%; pest or weed control at 3960 g/ha ([6]; 3.96 kg ai/ha): 95 to 100% |
| COC(=O)c1nc(-c2ccc(OC(F)F)cc2)c(F)c(N)c1Cl [Compound 85] | 0 to 29% | 0 to 29% | 0 to 29% | >140 g ai/ha | >140 g ai/ha | 30 to 44% | 45 to 59% | 60 to 74% | 90 g ai/ha | >140 g ai/ha | pest or weed control at 3760 g/ha ([1]; 3.76 kg ai/ha): 95 to 100%; pest or weed control at 3760 g/ha ([2]; 3.76 kg ai/ha): 30 to 44%; pest or weed control at 3760 g/ha ([3]; 3.76 kg ai/ha): 95 to 100%; pest or weed control at 3760 g/ha ([4]; 3.76 kg ai/ha): 95 to 100%; pest or weed control at 3760 g/ha ([5]; 3.76 kg ai/ha): 30 to 44%; pest or weed control at 3760 g/ha ([6]; 3.76 kg ai/ha): 85 to 94% |
| COC(=O)c1nc(-c2ccc(Br)c(F)c2F)cc(N)c1Cl [Compound 114, methyl 4-amino-6-(4-bromo-2,3-difluorophenyl)-3-chloropicolinate] | 0 to 29% | 0 to 29% | 0 to 29% | >140 g ai/ha | >140 g ai/ha | 30 to 44% | 30 to 44% | 30 to 44% | >140 g ai/ha | >140 g ai/ha | pest or weed control at 3920 g/ha ([1]; 3.92 kg ai/ha): 95 to 100%; pest or weed control at 3920 g/ha ([2]; 3.92 kg ai/ha): 0 to 29%; pest or weed control at 3920 g/ha ([3]; 3.92 kg ai/ha): 95 to 100%; pest or weed control at 3920 g/ha ([4]; 3.92 kg ai/ha): 95 to 100%; pest or weed control at 3920 g/ha ([5]; 3.92 kg ai/ha): 85 to 94%; pest or weed control at 3920 g/ha ([6]; 3.92 kg ai/ha): 75 to 84% |
| COC(=O)c1nc(-c2ccc(I)cc2)c(F)c(N)c1Cl [Compound 118, Methyl 4-amino-6-(4-iodophenyl)-3-chloro-5-fluoropicolinate] | 60 to 74% | 85 to 94% | 85 to 94% | 31 g ai/ha | 64 g ai/ha | 85 to 94% | 85 to 94% | 95 to 100% | 5 g ai/ha | 17 g ai/ha | pest or weed control at 2320 g/ha ([1]; 2.32 kg ai/ha): 95 to 100%; pest or weed control at 2320 g/ha ([2]; 2.32 kg ai/ha): 95 to 100%; pest or weed control at 2320 g/ha ([3]; 2.32 kg ai/ha): 95 to 100%; pest or weed control at 2320 g/ha ([4]; 2.32 kg ai/ha): 95 to 100%; pest or weed control at 2320 g/ha ([5]; 2.32 kg ai/ha): 95 to 100%; pest or weed control at 2320 g/ha ([6]; 2.32 kg ai/ha): 95 to 100% |
| COC(=O)c1nc(-c2ccc(Br)cc2)c(F)c(N)c1Cl [Compound 138, Methyl 4-amino-6-(4-bromophenyl)-3-chloro-5-fluoropicolinate] | 75 to 84% | 85 to 94% | 85 to 94% | 12 g ai/ha | 42 g ai/ha | 60 to 74% | 85 to 94% | 85 to 94% | 15 g ai/ha | 49 g ai/ha | pest or weed control at 4000 g/ha ([1]; 4 kg ai/ha): 95 to 100%; pest or weed control at 4000 g/ha ([2]; 4 kg ai/ha): 75 to 84%; pest or weed control at 4000 g/ha ([3]; 4 kg ai/ha): 95 to 100%; pest or weed control at 4000 g/ha ([4]; 4 kg ai/ha): 95 to 100%; pest or weed control at 4000 g/ha ([5]; 4 kg ai/ha): 95 to 100%; pest or weed control at 4000 g/ha ([6]; 4 kg ai/ha): 95 to 100% |
| COC(=O)c1nc(-c2ccc(C#N)cc2)c(F)c(N)c1Cl [Compound 142] | 0 to 29% | 0 to 29% | 0 to 29% | >140 g ai/ha | >140 g ai/ha | 75 to 84% | 85 to 94% | 85 to 94% | 5 g ai/ha | 40 g ai/ha | pest or weed control at 3840 g/ha ([1]; 3.84 kg ai/ha): 95 to 100%; pest or weed control at 3840 g/ha ([2]; 3.84 kg ai/ha): 45 to 59%; pest or weed control at 3840 g/ha ([3]; 3.84 kg ai/ha): 95 to 100%; pest or weed control at 3840 g/ha ([4]; 3.84 kg ai/ha): 95 to 100%; pest or weed control at 3840 g/ha ([5]; 3.84 kg ai/ha): 95 to 100%; pest or weed control at 3840 g/ha ([6]; 3.84 kg ai/ha): 60 to 74% |
